Data published in US12122763B2, “Substituted piperidines for androgen receptor degradation” (UBIX THERAPEUTICS, INC., priority 2020, dated 2024).

Target: T1, Androgen Receptor (AR) protein (Homo sapiens, UniProt P10275, T878A)
T1 construct: endogenous in cells; host or cells: LNCaP
Assay: Androgen Receptor (AR) protein degradation assay in LNCaP cells, western blotting
Assay type: cell-based
Conditions: 20 h; for inhibition at 0.01 µM: 0.01 μM compound; for inhibition at 0.1 µM: 0.1 μM compound; for inhibition at 1 µM: 1 μM compound
Summary of the method: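 LNCaP prostate cancer cells were cultured 3 days, then treated with compound for 20 h. Lysates in 1% SDS buffer were normalised by BCA, and 8 μg protein was run on 4–12% Bis-Tris gels. AR was immunoblotted with chemiluminescence, using GAPDH/β-actin as loading controls.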

T1 sequence (P10275 whole entry T878A): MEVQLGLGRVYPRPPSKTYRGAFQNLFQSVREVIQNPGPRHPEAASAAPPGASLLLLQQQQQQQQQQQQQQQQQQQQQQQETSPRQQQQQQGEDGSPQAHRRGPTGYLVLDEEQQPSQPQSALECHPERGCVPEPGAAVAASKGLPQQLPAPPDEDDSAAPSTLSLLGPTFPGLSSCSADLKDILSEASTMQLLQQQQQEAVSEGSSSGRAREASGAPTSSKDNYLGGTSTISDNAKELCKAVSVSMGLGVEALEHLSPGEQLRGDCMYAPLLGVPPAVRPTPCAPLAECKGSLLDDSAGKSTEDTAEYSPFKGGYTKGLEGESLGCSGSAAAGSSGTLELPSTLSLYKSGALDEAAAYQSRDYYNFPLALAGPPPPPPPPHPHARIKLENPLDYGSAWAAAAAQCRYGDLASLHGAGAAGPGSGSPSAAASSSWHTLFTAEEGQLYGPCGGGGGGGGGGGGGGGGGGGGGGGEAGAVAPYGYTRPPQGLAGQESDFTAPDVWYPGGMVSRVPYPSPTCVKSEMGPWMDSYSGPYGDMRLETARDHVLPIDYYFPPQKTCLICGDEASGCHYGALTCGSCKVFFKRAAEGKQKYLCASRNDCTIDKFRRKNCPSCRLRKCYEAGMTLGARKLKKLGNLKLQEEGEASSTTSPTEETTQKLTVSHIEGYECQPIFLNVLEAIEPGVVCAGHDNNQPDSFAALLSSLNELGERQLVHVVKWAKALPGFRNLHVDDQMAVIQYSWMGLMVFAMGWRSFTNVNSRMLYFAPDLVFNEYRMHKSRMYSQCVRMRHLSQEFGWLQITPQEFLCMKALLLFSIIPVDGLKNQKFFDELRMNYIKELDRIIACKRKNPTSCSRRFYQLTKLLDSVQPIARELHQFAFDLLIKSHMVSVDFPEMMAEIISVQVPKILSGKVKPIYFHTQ
T1 sequence (Q96SW2 whole entry partner): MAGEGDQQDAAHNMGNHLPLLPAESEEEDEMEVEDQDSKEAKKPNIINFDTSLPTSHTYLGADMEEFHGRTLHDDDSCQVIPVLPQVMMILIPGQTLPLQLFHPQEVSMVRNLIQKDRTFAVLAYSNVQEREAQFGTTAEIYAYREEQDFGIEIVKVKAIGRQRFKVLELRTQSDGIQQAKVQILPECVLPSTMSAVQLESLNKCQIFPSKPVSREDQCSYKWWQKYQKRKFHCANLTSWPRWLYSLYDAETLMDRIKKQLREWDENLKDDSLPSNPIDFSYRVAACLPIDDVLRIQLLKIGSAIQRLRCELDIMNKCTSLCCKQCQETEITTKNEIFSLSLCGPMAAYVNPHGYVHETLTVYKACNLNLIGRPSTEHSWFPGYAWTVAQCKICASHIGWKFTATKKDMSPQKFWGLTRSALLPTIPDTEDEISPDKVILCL

Row | Structure (SMILES) | inhibition at 0.01 µM [%] | inhibition at 0.1 µM [%] | inhibition at 1 µM [%]
1 | C[C@@H]1CN(CC2CN(c3ccc4c(c3)C(=O)N(C3CCC(=O)NC3=O)C4=O)C2)CCN1CC1CN(c2ccc(NC(=O)C3CCN(c4ccc(C#N)c(C(F)(F)F)c4)CC3)nc2)C1 (stereo partly drawn) [Example 31, 1-(4-cyano-3-(trifluoromethyl)phenyl)-N-(5-(3-(((2R)-4-((1-(2-(2,6-dioxopiperidin-3-yl)-1,3-dioxoisoindolin-5-yl)azetidin-3-yl)methyl)-2-methylpiperazin-1-yl)methyl)azetidin-1-yl)pyridin-2-yl)piperidine-4-carboxamide] | 67 | 99 | 97
2 | C[C@@H]1CN(CC2CN(c3ccc(NC(=O)C4CCN(c5ccc(C#N)c(C(F)(F)F)c5)CC4)nc3)C2)CCN1CC1CN(c2ccc3c(c2)C(=O)N(C2CCC(=O)NC2=O)C3=O)C1 (stereo partly drawn) [Example 32, 1-(4-cyano-3-(trifluoromethyl)phenyl)-N-(5-(3-(((3R)-4-((1-(2-(2,6-dioxopiperidin-3-yl)-1,3-dioxoisoindolin-5-yl)azetidin-3-yl)methyl)-3-methylpiperazin-1-yl)methyl)azetidin-1-yl)pyridin-2-yl)piperidine-4-carboxamide] | 62 | 99 | 99
3 | N#Cc1ccc(N2CCC(C(=O)Nc3ccc(N4CCC(CN5CCN(C6CN(c7ccc8c(n7)CN(C7CCC(=O)NC7=O)C8=O)C6)CC5)CC4)cn3)CC2)cc1C(F)(F)F (stereo not drawn) [Example 33, 1-(4-cyano-3-(trifluoromethyl)phenyl)-N-(5-(4-((4-(1-(6-(2,6-dioxopiperidin-3-yl)-5-oxo-6,7-dihydro-5H-pyrrolo[3,4-b]pyridin-2-yl)azetidin-3-yl)piperazin-1-yl)methyl)piperidin-1-yl)pyridin-2-yl)piperidine-4-carboxamide] | 54 | 90 | 72
4 | N#Cc1ccc(N2CCC(C(=O)Nc3ccc(N4CCC(CN5CCN(CC6CCN(c7ccc8c(n7)CN(C7CCC(=O)NC7=O)C8=O)CC6)CC5)CC4)cn3)CC2)cc1C(F)(F)F (stereo not drawn) [Example 34, 1-(4-cyano-3-(trifluoromethyl)phenyl)-N-(5-(4-((4-((1-(6-(2,6-dioxopiperidin-3-yl)-5-oxo-6,7-dihydro-5H-pyrrolo[3,4-b]pyridin-2-yl)piperidin-4-yl)methyl)piperazin-1-yl)methyl)piperidin-1-yl)pyridin-2-yl)piperidine-4-carboxamide] | 88 | 99 | 96
5 | N#Cc1ccc(N2CCC(C(=O)Nc3ccc(N4CCC(CN5CCN(C6CN(c7ccc8c(c7)C(=O)N(C7CCC(=O)NC7=O)C8=O)C6)CC5)CC4)cn3)CC2)cc1C(F)(F)F (stereo not drawn) [Example 35, 1-(4-cyano-3-(trifluoromethyl)phenyl)-N-(5-(4-((4-(1-(2-(2,6-dioxopiperidin-3-yl)-1,3-dioxoisoindolin-5-yl)azetidin-3-yl)piperazin-1-yl)methyl)piperidin-1-yl)pyridin-2-yl)piperidine-4-carboxamide] | 71 | 97 | 95
6 | N#Cc1ccc(N2CCC(C(=O)Nc3ccc(N4CC(CN5CCN(C6CN(c7ccc8c(c7)C(=O)N(C7CCC(=O)NC7=O)C8=O)C6)CC5)C4)cn3)CC2)cc1C(F)(F)F (stereo not drawn) [Example 36, 1-(4-cyano-3-(trifluoromethyl)phenyl)-N-(5-(3-((4-(1-(2-(2,6-dioxopiperidin-3-yl)-1,3-dioxoisoindolin-5-yl)azetidin-3-yl)piperazin-1-yl)methyl)azetidin-1-yl)pyridin-2-yl)piperidine-4-carboxamide] | 66 | 94 | 94
7 | N#Cc1ccc(N2CCC(C(=O)Nc3ccc(N4CCC(CN5CCN(C[C@@H]6CCN(c7ccc8c(n7)CN(C7CCC(=O)NC7=O)C8=O)C6)CC5)CC4)cn3)CC2)cc1C(F)(F)F (stereo partly drawn) [Example 37, 1-(4-cyano-3-(trifluoromethyl)phenyl)-N-(5-(4-((4-(((3S)-1-(6-(2,6-dioxopiperidin-3-yl)-5-oxo-6,7-dihydro-5H-pyrrolo[3,4-b]pyridin-2-yl)pyrrolidin-3-yl)methyl)piperazin-1-yl)methyl)piperidin-1-yl)pyridin-2-yl)piperidine-4-carboxamide] | 51 | 93 | 90
8 | N#Cc1ccc(N2CCC(C(=O)Nc3ccc(N4CCC(CN5CCN(C[C@@H]6CCN(c7cc8c(cc7F)C(=O)N(C7CCC(=O)NC7=O)C8=O)C6)CC5)CC4)cn3)CC2)cc1C(F)(F)F (stereo partly drawn) [Example 38, 1-(4-cyano-3-(trifluoromethyl)phenyl)-N-(5-(4-((4-(((3S)-1-(2-(2,6-dioxopiperidin-3-yl)-6-fluoro-1,3-dioxoisoindolin-5-yl)pyrrolidin-3-yl)methyl)piperazin-1-yl)methyl)piperidin-1-yl)pyridin-2-yl)piperidine-4-carboxamide] | 44 | 93 | 97
9 | N#Cc1ccc(N2CCC(C(=O)Nc3ccc(N4CCC(CN5CCN(C[C@H]6CCN(c7ccc8c(n7)CN(C7CCC(=O)NC7=O)C8=O)C6)CC5)CC4)cn3)CC2)cc1C(F)(F)F (stereo partly drawn) [Example 39, 1-(4-cyano-3-(trifluoromethyl)phenyl)-N-(5-(4-((4-(((3R)-1-(6-(2,6-dioxopiperidin-3-yl)-5-oxo-6,7-dihydro-5H-pyrrolo[3,4-b]pyridin-2-yl)pyrrolidin-3-yl)methyl)piperazin-1-yl)methyl)piperidin-1-yl)pyridin-2-yl)piperidine-4-carboxamide] | 80 | 98 | 95
10 | C[C@@H]1CN(CC2CCN(c3ccc(NC(=O)C4CCN(c5ccc(C#N)c(C(F)(F)F)c5)CC4)nc3)CC2)CCN1C1CN(c2ccc3c(c2)C(=O)N(C2CCC(=O)NC2=O)C3=O)C1 (stereo partly drawn) [Example 40, 1-(4-cyano-3-(trifluoromethyl)phenyl)-N-(5-(4-(((3R)-4-(1-(2-(2,6-dioxopiperidin-3-yl)-1,3-dioxoisoindolin-5-yl)azetidin-3-yl)-3-methylpiperazin-1-yl)methyl)piperidin-1-yl)pyridin-2-yl)piperidine-4-carboxamide] | 43 | 94 | 94
11 | C[C@@H]1CN(C2CN(c3ccc4c(c3)C(=O)N(C3CCC(=O)NC3=O)C4=O)C2)CCN1CC1CCN(c2ccc(NC(=O)C3CCN(c4ccc(C#N)c(C(F)(F)F)c4)CC3)nc2)CC1 (stereo partly drawn) [Example 41, 1-(4-cyano-3-(trifluoromethyl)phenyl)-N-(5-(4-(((2R)-4-(1-(2-(2,6-dioxopiperidin-3-yl)-1,3-dioxoisoindolin-5-yl)azetidin-3-yl)-2-methylpiperazin-1-yl)methyl)piperidin-1-yl)pyridin-2-yl)piperidine-4-carboxamide] | 62 | 93 | 86
12 | C[C@@H]1CN(C2CCN(c3ccc4c(c3)C(=O)N(C3CCC(=O)NC3=O)C4=O)CC2)CCN1CC1CCN(c2ccc(NC(=O)C3CCN(c4ccc(C#N)c(C(F)(F)F)c4)CC3)nc2)CC1 (stereo partly drawn) [Example 42, 1-(4-cyano-3-(trifluoromethyl)phenyl)-N-(5-(4-(((2R)-4-(1-(2-(2,6-dioxopiperidin-3-yl)-1,3-dioxoisoindolin-5-yl)piperidin-4-yl)-2-methylpiperazin-1-yl)methyl)piperidin-1-yl)pyridin-2-yl)piperidine-4-carboxamide] | 65 | 96 | 94
